Experimental data published in patent US20090311292A1, “PROCESS FOR SYNTHESIS AND INCORPORATION OF NITRIC OXIDE DONORS IN MACROMOLECULAR COMPOSITIONS” (CRISTALIA PRODUTOS QUIMICOS FARMACEUTICOS LTDA., priority 2006, published 2009).
One block for each compound: values may come before it.

Tests used:
[1] = 25° C. in the dark, 0.1 to 61.0 mmol L^−1, follow-up 3.5 hours; cited from earlier work
[2] = Stability of GSNO incorporated in PEO-PPO-PEO matrix (Pluronic F-127) under refrigeration; assay type: physicochemical; conditions: for Content (%) 30 days / Content (%) 45 days / Content (%) 110 days / Content (%) Initial: 5-8° C.
[3] = incorporated in PEO-PPO-PEO gel at 37° C.; cited from earlier work
[4] = system: excisional wound on the back of Wistar rats; experiment: Cutaneous wound healing in an animal model (excisional wound); assay type: in vivo
Source text: 6.1. Acceleration of cutaneous wound healing in an animal model. […] The formulation of freshly prepared GSNO (100 μmol L^−1) was topically applied to the wounds of the animals. Wistar rats (n=10) were housed in individual cages with free access to water. In the first day (Day 0-d0), an excisional wound (2×2 cm) was made on the back of the animals, under general anesthesia. The wound was covered with either pure hydrogel (control animals) or GSNO-containing hydrogel (treated group). Thereafter, the wounds were closed with a dressing. Daily, up to the fourth day after injury, the dressings were removed, and the wounds were gently cleaned with cold saline. The hydrogel (either containing GSNO or not) was applied and the dressing was replaced. From the fifth day after injury on, the wounds were no longer closed with a dressing.
Wound retraction was measured and reepithelization was evaluated histologically. Wound contours were traced in a transparent paper sheet at the day of injury and after 3, 5, 7, 14 and 21 days. The tracing area was determined using image-analysis software (Image-Pro) and the results were expressed as percentages of the initial area. Blood pressure was measured at the beginning and end of the experiments. After euthanasia, a fragment containing the wound and the adjacent healthy skin was removed. The fragments were fixed in formalin solution, processed and embedded in paraffin. The paraffin-embedded specimens were serially sectioned and 5-μm-thick cuts were obtained and stained using the following techniques: hematoxylin-eosin (for overall observation of the tissue fragment), picro-Mallory (for observation of the connective tissue) and picrosirius red (for observation of the collagen fibers). The blood pressure of the control and treated animals was equivalent at the beginning and end of the experiments.

[5] = Stability of solid GSNO stored at room temperature (absorbance at 336 nm); assay type: physicochemical; conditions: amber glass vials, room temperature (25° C.)
Method: Samples of solid GSNO were stored in amber glass vials and maintained at room temperature (25° C.) for evaluation of its stability. GSNO content in the samples at day 0, after 48 hours (day 2) and after 5 days was quantified from the absorbance readings of the aqueous solutions 500 μmol L^−1 at 336 nm. […] According to the results, after 48-hours of storage at room temperature, decomposition of approximately 52% of the initial GSNO content occurs.

[6] = Stability of solid glutathione at 30° C. and 40° C. (UV-visible spectrophotometry after conversion to GSNO); assay type: physicochemical; conditions: for Content (%) 30 days / Content (%) 70 days / Content (%) 105 days / Content (%) 165 days / Content (%) Initial: solid
Method: Samples of solid glutathione (GSH) were stored in amber glass vials and maintained at temperatures of 30° C. and 40° C. for evaluation of its stability. GSH content in the samples was determined by UV-visible spectrophotometry from the reaction between GSH and NaNO2 in acid medium (aqueous HCl solution, 2.0 mol L^−1) forming GSNO with absorption bands at 336 nm and 545 nm. GSNO formation (0.05 mol L^−1) was quantified by the intensity of the GSNO absorption band at 545 nm.

[7] = 50 μmolL^−1 in hydrogel formulation
[8] = 100 μmolL^−1 in hydrogel formulation
[9] = 200 μmolL^−1 in hydrogel formulation
[10] = twenty-one days after injury, superficial and deep areas

SMILES: N[C@@H](CSN=O)C(=O)O [S-nitrosocysteine, reference compound]
thermal decomposition of aqueous solution [1]: undergo spontaneous thermal decomposition

Content (%) 30 days [2, 7]: 96 ± 6% | Content (%) 45 days [2, 7]: 89 ± 6% | Content (%) 110 days [2, 7]: 85 ± 6% | Content (%) Initial [2, 7]: 100 ± 6% | Content (%) 30 days [2, 8]: 103 ± 6% | Content (%) 45 days [2, 8]: 100 ± 6% | Content (%) 110 days [2, 8]: 80 ± 6% | Content (%) Initial [2, 8]: 100 ± 6% | Content (%) 30 days [2, 9]: 90 ± 6% | Content (%) 45 days [2, 9]: 90 ± 6% | Content (%) 110 days [2, 9]: 85 ± 6% | Content (%) Initial [2, 9]: 100 ± 6% | decrease in relation to the initial GSNO content ([2]; in PEO-PPO-PEO matrix, 50, 100 and 200 μmol L^−1, 110 days at 5-8° C.): about 20% | Content (%) After 2 days [5]: 48 ± 6% | Content (%) After 5 days [5]: 36 ± 6% | Content (%) Initial (day 0) [5]: 100 ± 6%
SMILES: N[C@@H](CCC(=O)N[C@@H](CSN=O)C(=O)NCC(=O)O)C(=O)O [GSNO, S-nitrosoglutathione]
initial rate of thermal decomposition [3]: 2.3 μmolL^−1 min^−1 | area of wound reepithelization larger compared to the control group ([4]; 7 days after injury): > 77% | wound retraction versus control group ([4]; after 3, 5 and 7 days of injury (p=0.01; p=0.05; p=0.007), GSNO-containing hydrogel 100 μmol L^−1): greater | new epidermis formation compared to the control animals ([4]; after 14 and 21 days of injury): more accentuated | wound contraction in relation to the controls ([4]; after 14 and 21 days of injury): greater | blood pressure of control and treated animals ([4]; beginning and end of the experiments, GSNO 100 μmol L^−1 in Pluronic F-127 hydrogel, topical): equivalent | wound area in control animals larger than in GSNO-treated animals ([4]; fourteen days after injury): 22% | number of microvessels in relation to the control group ([4]; twenty-one days after injury): tendency of increase | total number of mast cells in deep areas of the granulation tissue compared to the control group ([4]; twenty-one days after injury): +384% | wound area in control animals larger than in GSNO-treated animals ([4]; twenty-one days after injury): 20% | inflammatory cells in granulation tissue of control group in comparison to GSNO-treated group [4, 10]: larger number | number of fibroblasts in granulation tissue compared to the control group [4, 10]: increase | thermal decomposition of aqueous solution [1]: undergo spontaneous thermal decomposition

time remained stable ([6]; solid form, follow up by UV-visible spectrophotometry): at least 165 days | Content (%) 30 days ([6]; 30° C.): 100 ± 6% | Content (%) 70 days ([6]; 30° C.): 102 ± 6% | Content (%) 105 days ([6]; 30° C.): 103 ± 6% | Content (%) 165 days ([6]; 30° C.): 100 ± 6% | Content (%) Initial ([6]; 30° C.): 100 ± 6% | Content (%) 30 days ([6]; 40° C.): 100 ± 6% | Content (%) 70 days ([6]; 40° C.): 100 ± 6% | Content (%) 105 days ([6]; 40° C.): 99 ± 6% | Content (%) 165 days ([6]; 40° C.): 101 ± 6% | Content (%) Initial ([6]; 40° C.): 100 ± 6%
SMILES: N[C@@H](CCC(=O)N[C@@H](CS)C(=O)NCC(=O)O)C(=O)O [GSH, glutathione]

SMILES: CC(=O)N[C@@H](CSN=O)C(=O)O [SNAC, S-nitroso-N-acetylcysteine]
initial rate of thermal decomposition [3]: 7.2 μmolL^−1 min^−1 | thermal decomposition of aqueous solution [1]: undergo spontaneous thermal decomposition
